Experiments:
OCT2 = biological target: T1, OCT2 (Homo sapiens, UniProt O15244); assay: Uptake of [3-H]methyl-4-phenylpyridinium in HEK293-OCT2 cells; format: in vitro ADME; details: for Transport Rate (pmol/min) (mean ± SD): 0.1 μM probe substrate, n=3
T1 construct: host or cells: HEK293 (transient overexpression)
T1 sequence (O15244 1-555): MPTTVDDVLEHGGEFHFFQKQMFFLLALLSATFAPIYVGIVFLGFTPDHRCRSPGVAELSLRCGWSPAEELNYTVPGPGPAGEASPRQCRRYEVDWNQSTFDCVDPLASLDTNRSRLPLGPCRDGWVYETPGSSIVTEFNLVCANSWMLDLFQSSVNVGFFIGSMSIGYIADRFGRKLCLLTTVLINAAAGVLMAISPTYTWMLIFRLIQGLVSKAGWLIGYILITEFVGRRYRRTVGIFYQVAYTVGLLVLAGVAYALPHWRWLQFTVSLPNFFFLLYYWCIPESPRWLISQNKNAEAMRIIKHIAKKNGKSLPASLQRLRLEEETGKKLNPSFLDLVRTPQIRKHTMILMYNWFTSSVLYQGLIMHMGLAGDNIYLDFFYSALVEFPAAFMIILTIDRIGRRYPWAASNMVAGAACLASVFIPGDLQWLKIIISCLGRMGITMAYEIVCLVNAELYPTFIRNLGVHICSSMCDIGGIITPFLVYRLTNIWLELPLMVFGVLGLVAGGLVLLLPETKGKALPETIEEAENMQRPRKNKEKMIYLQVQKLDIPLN
Method: (§1) To examine the effects of APINACA and typical inhibitors on transporter activity, the uptake of a probe substrate into HEK293 cells overexpressing the respective solute carrier transporters was measured in the presence of APINACA (final concentrations of 0–250 μM) or typical inhibitors for 5 min. The concentrations and probe substrates were selected as follows: 0.1 μM [3-H]MPP^+ (for OCT1 and OCT2), 0.1 μM [3-H]PAH (for OAT1), 0.1 μM [3-H]ES (for OAT3 and OATP1B1), and 0.1 μM [3-H]EG (for OATP1B3).
(§2) 12.5 (Systat Software, Inc.; San Jose, CA, USA). […] 1.1 (Systat Software, Inc.).

P-glycoprotein (P-gp) = P-glycoprotein (P-gp) (Homo sapiens, UniProt P08183); assay: B to A transport of [3-H]digoxin in LLC-PK1-MDR1 cells; details: for Transport Rate (pmol/min) (mean ± SD): 0.1 μM probe substrate, B to A, n=3
P-glycoprotein (P-gp), sequence (P08183 whole entry): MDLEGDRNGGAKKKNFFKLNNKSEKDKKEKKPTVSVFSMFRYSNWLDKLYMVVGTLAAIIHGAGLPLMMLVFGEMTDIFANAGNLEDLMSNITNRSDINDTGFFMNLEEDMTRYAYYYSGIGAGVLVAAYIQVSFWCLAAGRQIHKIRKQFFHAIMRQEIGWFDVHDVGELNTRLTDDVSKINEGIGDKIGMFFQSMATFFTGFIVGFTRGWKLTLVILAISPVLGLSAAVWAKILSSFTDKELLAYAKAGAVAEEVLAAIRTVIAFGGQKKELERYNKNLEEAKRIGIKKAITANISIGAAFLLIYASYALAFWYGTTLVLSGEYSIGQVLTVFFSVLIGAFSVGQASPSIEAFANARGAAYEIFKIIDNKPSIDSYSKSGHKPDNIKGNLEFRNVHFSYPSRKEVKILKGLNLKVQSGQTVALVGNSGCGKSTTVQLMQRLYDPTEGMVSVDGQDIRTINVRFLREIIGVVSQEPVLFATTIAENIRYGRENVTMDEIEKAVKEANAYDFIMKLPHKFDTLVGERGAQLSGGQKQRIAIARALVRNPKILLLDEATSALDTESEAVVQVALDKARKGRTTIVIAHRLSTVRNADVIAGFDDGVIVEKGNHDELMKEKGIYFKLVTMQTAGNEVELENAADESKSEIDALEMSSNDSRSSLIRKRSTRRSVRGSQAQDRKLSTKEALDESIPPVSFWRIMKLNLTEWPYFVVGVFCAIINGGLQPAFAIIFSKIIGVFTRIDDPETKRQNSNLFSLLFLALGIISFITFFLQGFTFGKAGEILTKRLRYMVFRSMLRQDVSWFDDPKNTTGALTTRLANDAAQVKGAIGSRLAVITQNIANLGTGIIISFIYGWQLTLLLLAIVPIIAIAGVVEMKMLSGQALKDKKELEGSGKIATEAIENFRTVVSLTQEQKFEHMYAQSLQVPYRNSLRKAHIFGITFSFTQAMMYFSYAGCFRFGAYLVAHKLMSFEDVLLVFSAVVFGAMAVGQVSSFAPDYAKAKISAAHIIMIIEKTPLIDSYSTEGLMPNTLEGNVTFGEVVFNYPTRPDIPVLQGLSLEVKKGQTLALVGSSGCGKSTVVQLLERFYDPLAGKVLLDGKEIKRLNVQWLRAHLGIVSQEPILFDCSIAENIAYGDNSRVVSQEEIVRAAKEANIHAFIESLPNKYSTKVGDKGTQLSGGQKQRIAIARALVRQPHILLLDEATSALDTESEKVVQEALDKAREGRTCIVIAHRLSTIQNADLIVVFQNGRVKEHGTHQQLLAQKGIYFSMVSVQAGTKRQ
Method: The cells were seeded onto filter membranes at a density of 2 × 10^5 cells/well for 5 days with TEER values over 450 Ω·cm^2. The B to A transport of 0.1 μM [3-H]digoxin in LLC-PK1-MDR1 cells was measured by adding 1.5 mL of HBSS containing APINACA (final concentrations of 0–100 μM) on the basal side and by adding 0.5 mL of HBSS without APINACA on the apical side of the insert using protocols identical to those described above.
(§3) 1.1 (Systat Software, Inc.).

BCRP = biological target: T2, BCRP (Homo sapiens, UniProt Q9UNQ0); assay: B to A transport of [3-H]estrone-3-sulfate in LLC-PK1-BCRP cells; format: in vitro ADME; details: for Transport Rate (pmol/min) (mean ± SD): 0.1 μM probe substrate, B to A, n=3
T2 sequence (Q9UNQ0 1-655): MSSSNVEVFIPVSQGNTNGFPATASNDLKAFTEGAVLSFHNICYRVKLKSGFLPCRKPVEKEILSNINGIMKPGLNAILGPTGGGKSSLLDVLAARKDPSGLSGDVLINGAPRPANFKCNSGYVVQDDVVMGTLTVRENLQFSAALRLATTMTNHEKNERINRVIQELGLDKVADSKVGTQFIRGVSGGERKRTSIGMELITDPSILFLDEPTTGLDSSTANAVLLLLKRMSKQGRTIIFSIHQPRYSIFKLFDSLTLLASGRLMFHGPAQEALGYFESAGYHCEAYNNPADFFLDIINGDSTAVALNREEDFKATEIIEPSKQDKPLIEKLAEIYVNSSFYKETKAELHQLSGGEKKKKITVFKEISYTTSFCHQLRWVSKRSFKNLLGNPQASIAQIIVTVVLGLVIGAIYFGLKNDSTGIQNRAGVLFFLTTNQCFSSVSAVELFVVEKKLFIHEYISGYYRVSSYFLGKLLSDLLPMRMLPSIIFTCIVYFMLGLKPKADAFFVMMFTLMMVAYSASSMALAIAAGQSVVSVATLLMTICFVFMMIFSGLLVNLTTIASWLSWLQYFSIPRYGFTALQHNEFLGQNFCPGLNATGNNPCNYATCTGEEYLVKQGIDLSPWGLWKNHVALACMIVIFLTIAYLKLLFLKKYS

OAT3 = biological target: T3, OAT3 (Homo sapiens, UniProt Q8TCC7); assay: Uptake of [3-H]estrone-3-sulfate in HEK293-OAT3 cells; format: in vitro ADME; details: for Transport Rate (pmol/min) (mean ± SD): 0.1 μM probe substrate, n=3
T3 construct: host or cells: HEK293 (transient overexpression)
T3 sequence (Q8TCC7 1-542): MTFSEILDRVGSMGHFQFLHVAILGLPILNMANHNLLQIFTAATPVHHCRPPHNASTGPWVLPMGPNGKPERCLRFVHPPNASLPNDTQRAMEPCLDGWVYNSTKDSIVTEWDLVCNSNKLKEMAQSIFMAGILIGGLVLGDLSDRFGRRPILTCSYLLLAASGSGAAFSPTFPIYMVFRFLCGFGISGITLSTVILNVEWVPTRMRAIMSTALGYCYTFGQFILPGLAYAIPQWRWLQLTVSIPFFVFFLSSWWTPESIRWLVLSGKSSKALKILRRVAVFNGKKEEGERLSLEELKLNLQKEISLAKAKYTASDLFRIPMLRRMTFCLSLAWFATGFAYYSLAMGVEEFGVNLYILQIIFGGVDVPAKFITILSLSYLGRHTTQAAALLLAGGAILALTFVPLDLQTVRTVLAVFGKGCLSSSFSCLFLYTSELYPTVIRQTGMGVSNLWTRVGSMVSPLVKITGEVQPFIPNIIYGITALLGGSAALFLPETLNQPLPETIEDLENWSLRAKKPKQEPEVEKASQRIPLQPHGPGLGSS
Method: The concentrations and probe substrates were selected as follows: 0.1 μM [3-H]MPP^+ (for OCT1 and OCT2), 0.1 μM [3-H]PAH (for OAT1), 0.1 μM [3-H]ES (for OAT3 and OATP1B1), and 0.1 μM [3-H]EG (for OATP1B3).
as §3

OATP1B1 = biological target: T4, OATP1B1 (Homo sapiens, UniProt Q9Y6L6); assay: Uptake of [3-H]estrone-3-sulfate in HEK293-OATP1B1 cells; format: in vitro ADME; details: for Transport Rate (pmol/min) (mean ± SD): 0.1 μM probe substrate, n=3
T4 construct: host or cells: HEK293 (transient overexpression)
T4 sequence (Q9Y6L6 1-691): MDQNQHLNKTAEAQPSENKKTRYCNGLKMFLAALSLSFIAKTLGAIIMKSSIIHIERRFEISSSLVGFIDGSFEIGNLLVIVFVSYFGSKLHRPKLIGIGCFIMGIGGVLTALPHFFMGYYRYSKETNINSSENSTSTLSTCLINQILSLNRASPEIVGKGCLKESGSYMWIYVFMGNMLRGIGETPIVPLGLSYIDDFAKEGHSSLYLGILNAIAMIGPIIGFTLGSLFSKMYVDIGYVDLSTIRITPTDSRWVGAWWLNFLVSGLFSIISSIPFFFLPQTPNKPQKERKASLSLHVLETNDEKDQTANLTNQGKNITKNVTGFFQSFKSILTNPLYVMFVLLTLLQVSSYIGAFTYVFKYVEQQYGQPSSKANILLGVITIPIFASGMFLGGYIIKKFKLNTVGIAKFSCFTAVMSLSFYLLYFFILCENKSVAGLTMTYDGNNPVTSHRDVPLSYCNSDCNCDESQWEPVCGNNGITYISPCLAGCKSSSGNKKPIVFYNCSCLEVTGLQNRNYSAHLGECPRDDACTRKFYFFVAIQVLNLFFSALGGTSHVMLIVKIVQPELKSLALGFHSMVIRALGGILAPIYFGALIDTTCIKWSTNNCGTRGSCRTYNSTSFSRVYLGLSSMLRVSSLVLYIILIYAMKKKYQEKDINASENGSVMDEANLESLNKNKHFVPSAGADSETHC
Method: as §1, §2

OCT1 = biological target: T5, OCT1 (Homo sapiens, UniProt O15245); assay: Uptake of [3-H]methyl-4-phenylpyridinium in HEK293-OCT1 cells; format: in vitro ADME; details: for Transport Rate (pmol/min) (mean ± SD): 0.1 μM probe substrate, n=3
T5 construct: host or cells: HEK293 (transient overexpression)
T5 sequence (O15245 1-554): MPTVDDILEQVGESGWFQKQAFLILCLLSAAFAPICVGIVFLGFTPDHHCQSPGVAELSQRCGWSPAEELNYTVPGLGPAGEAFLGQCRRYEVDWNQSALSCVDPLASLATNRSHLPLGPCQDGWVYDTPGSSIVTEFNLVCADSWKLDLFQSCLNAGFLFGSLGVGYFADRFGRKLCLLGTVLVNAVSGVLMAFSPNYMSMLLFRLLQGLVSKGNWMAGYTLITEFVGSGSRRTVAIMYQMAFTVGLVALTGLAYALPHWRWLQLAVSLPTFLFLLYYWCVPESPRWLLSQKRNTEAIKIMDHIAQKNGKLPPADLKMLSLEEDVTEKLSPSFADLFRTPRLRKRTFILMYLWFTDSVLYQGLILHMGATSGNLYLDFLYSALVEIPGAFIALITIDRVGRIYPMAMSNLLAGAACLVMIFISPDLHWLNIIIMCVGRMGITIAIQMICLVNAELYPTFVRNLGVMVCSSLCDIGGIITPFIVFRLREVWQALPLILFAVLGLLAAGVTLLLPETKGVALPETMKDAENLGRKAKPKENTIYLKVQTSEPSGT
Method: as §1, §2

UGT1A9 = biological target: T6, UGT1A9 (Homo sapiens, UniProt O60656); details: read-out: Ki for inhibition of UGT1A9 activities; recombinant and human liver microsomal UGT1A9; cited from earlier work
T6 sequence (O60656 26-530): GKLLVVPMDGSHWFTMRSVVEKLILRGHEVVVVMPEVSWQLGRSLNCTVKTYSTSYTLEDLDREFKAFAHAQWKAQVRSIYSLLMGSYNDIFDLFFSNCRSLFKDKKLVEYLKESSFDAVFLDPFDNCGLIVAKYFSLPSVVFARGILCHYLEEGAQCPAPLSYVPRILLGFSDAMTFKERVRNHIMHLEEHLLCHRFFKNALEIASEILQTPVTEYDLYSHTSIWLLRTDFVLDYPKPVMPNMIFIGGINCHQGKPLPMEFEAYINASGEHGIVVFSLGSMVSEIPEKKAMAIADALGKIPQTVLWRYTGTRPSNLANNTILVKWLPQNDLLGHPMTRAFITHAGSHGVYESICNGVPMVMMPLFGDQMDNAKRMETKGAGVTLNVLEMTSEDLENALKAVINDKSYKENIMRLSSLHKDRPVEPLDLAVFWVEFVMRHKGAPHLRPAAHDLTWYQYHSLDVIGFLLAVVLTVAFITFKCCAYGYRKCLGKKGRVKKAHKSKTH

Compound: CN/C(=N/CCSCc1nc[nH]c1C)NC#N [Cimetidine]
- IC50 (OCT2; HEK293-OCT2 cells, 0.1 μM [3-H]methyl-4-phenylpyridinium, 5 min uptake, read-out: IC50 for inhibition of OCT2 transport): 197000 nM

Compound: C[C@H]1O[C@@H](O[C@H]2[C@@H](O)C[C@H](O[C@H]3[C@@H](O)C[C@H](O[C@H]4CC[C@@]5(C)[C@H](CC[C@@H]6[C@@H]5C[C@@H](O)[C@]5(C)[C@@H](C7=CC(=O)OC7)CC[C@]65O)C4)O[C@@H]3C)O[C@@H]2C)C[C@H](O)[C@@H]1O [Digoxin]
- Fold Increase of transport rate (P-glycoprotein (P-gp); LLC-PK1-MDR1 versus Mock): 7.3
- Transport Rate (pmol/min) (mean ± SD) (P-glycoprotein (P-gp); LLC-PK1 Mock cells (comparison for MDR1)): 0.14 ± 0.02 pmol/min
- Transport Rate (pmol/min) (mean ± SD) (P-glycoprotein (P-gp); LLC-PK1 cells overexpressing MDR1 (P-gp)): 1.06 ± 0.07 pmol/min

Compound: C[C@]12CC[C@@H]3c4ccc(OS(=O)(=O)O)cc4CC[C@H]3[C@@H]1CCC2=O [Estrone-3-sulfate]
- Fold Increase of transport rate (BCRP; LLC-PK1-BCRP versus Mock): 4.7
- Transport Rate (pmol/min) (mean ± SD) (BCRP; LLC-PK1 Mock cells (comparison for BCRP)): 0.44 ± 0.07 pmol/min
- Transport Rate (pmol/min) (mean ± SD) (BCRP; LLC-PK1 cells overexpressing BCRP): 2.09 ± 0.12 pmol/min
- Fold Increase of transport rate (OAT3; HEK293-OAT3 versus Mock): 15.3
- Transport Rate (pmol/min) (mean ± SD) (OAT3; HEK293 Mock cells (comparison for OAT3)): 0.98 ± 0.20 pmol/min
- Transport Rate (pmol/min) (mean ± SD) (OAT3; HEK293 cells overexpressing OAT3): 14.96 ± 3.09 pmol/min
- Fold Increase of transport rate (OATP1B1; HEK293-OATP1B1 versus Mock): 16.5
- Transport Rate (pmol/min) (mean ± SD) (OATP1B1; HEK293 Mock cells (comparison for OATP1B1)): 0.76 ± 0.04 pmol/min
- Transport Rate (pmol/min) (mean ± SD) (OATP1B1; HEK293 cells overexpressing OATP1B1): 12.58 ± 1.57 pmol/min

Compound: C[n+]1ccc(-c2ccccc2)cc1 [Methyl-4-phenylpyridinium]
- Fold Increase of transport rate (OCT2; HEK293-OCT2 versus Mock): 25.5
- Transport Rate (pmol/min) (mean ± SD) (OCT2; HEK293 Mock cells (comparison for OCT2)): 0.66 ± 0.11 pmol/min
- Transport Rate (pmol/min) (mean ± SD) (OCT2; HEK293 cells overexpressing OCT2): 16.78 ± 0.43 pmol/min
- Fold Increase of transport rate (OCT1; HEK293-OCT1 versus Mock): 17.1
- Transport Rate (pmol/min) (mean ± SD) (OCT1; HEK293 Mock cells (comparison for OCT1)): 0.60 ± 0.09 pmol/min
- Transport Rate (pmol/min) (mean ± SD) (OCT1; HEK293 cells overexpressing OCT1): 10.24 ± 0.98 pmol/min

Compound: Cc1ccc([C@@H]2O[C@H](CO)[C@@H](O)[C@H](O)[C@H]2O)cc1Cc1ccc(-c2ccc(F)cc2)s1 [canagliflozin]
- Ki (UGT1A9): 1400 to 3000 nM

Compound: O=C(O)c1cc(/N=N/c2ccc(S(=O)(=O)Nc3ccccn3)cc2)ccc1O [sulfasalazine]
- IC50 (BCRP; human, LLC-PK1-BCRP cell monolayers on filter membranes, probe [3H]estrone-3-sulfate (0.1 μM), LLC-PK1-BCRP cells, B to A transport of 0.1 μM [3-H]estrone-3-sulfate, read-out: IC50 for inhibition of BCRP transport): 390 nM
